Data published in US7727989B2, “4-benzimidazol-2-yl-pyridazine-3-one-derivatives, production and use thereof in medicaments” (Sanofi-Aventis Deutschland GmbH, priority 2004, dated 2010).
Read-outs that look alike come from different tables or passages of the source.

Key:
human recombinant GSK-3β = human recombinant GSK-3β (Homo sapiens, UniProt P49841); assay: GSK-3β activity, AlphaScreen, primed glycogen synthase substrate peptide; format: biochemical
Method: Functional measurements to ascertain IC50 values:
GSK-3β activity is measured using human recombinant GSK-3β and a primed (pre-phosphorylated) substrate peptide (derived from glycogen synthase and containing the phosphorylation sites 3a, b, and c) on the basis of the AlphaScreen technology in 384-well plate format (small volume plate, white, Greiner). […] After adding […] Donor beads (20 μg/ml) and […] antibody (anti-phosphoglycogen synthase 1:2000)-coated Acceptor beads (40 μg/ml) in AlphaScreen detection buffer (20 mM Hepes, pH 7.4, 10 mM MgCl, 40 mM EDTA, 1 mM DTT, 0.1 mg/ml BSA), plates are incubated at room temperature (in the dark) overnight and then placed in a reader (Alphaquest or Fusion) to measure final fluorescence. IC50 values are calculated from the fitted curve corrected for bank values (absence of GSK-3β) and performed in triplicate.

[1] = human recombinant GSK-3β 0.18 nM, biot. phospho-glycogen synthase peptide 34 nM, 10 μM ATP, 60 min room temperature, triplicate, read-out: IC50

human recombinant GSK-3β, sequence (P49841 whole entry): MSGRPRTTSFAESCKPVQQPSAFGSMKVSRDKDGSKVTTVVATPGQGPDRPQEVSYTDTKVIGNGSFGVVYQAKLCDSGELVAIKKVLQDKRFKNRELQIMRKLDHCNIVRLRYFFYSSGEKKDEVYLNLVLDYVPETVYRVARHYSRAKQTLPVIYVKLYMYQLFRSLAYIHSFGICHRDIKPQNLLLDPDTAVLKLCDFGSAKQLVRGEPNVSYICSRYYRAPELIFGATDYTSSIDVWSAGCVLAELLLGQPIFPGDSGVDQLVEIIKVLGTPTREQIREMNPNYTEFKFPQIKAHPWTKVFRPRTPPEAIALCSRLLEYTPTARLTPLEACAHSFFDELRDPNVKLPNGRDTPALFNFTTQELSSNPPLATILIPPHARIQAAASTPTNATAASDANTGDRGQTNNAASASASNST

Compound	melting point	IC50 (human recombinant GSK-3β; [1])	IC50 (human recombinant GSK-3β)
O=c1[nH]nc(-c2ccncc2)cc1-c1nc2cc(Cl)ccc2[nH]1 [Example 5, 4-(6-Chloro-1H-benzimidazol-2-yl)-6-pyridin-4-yl-2H-pyridazin-3-one]	> 300 °C (dec.)		
O=c1[nH]nc(-c2ccncc2)cc1-c1nc2cc(C(F)(F)F)ccc2[nH]1 [Example 6, 4-(6-Tri-fluoromethyl-1H-benzimidazol-2-yl)-6-pyridin-4-yl-2H-pyridazin-3-one]	> 300 °C (dec.)	16 nM	
COc1ccc2nc(-c3cc(-c4ccncc4)n[nH]c3=O)[nH]c2c1 [Example 7, 4-(6-Methoxy-1H-benzimidazol-2-yl)-6-pyridin-4-yl-2H-pyridazin-3-one]	> 300 °C (dec.)		
O=C(NCCNC1CCCCC1)c1ccc2nc(-c3cc(-c4ccncc4)n[nH]c3=O)[nH]c2c1 [Example 8, 2-(3-Oxo-6-pyridin-4-yl-2,3-dihydropyridazin-4-yl)-1H-benzimidazole-5-carboxylic acid (2-cyclohexylaminoethyl)amide]	271 °C		
CN1CCN(CCCNC(=O)c2ccc3nc(-c4cc(-c5ccncc5)n[nH]c4=O)[nH]c3c2)CC1 [Example 9, 2-(3-Oxo-6-pyridin-4-yl-2,3-dihydropyridazin-4-yl)-1H-benzimidazole-5-carboxylic acid [3-(4-methylpiperazin-1-yl)propyl]amide]	> 300 °C		
O=C(NCCCO)c1ccc2nc(-c3cc(-c4ccncc4)n[nH]c3=O)[nH]c2c1 [Example 10, 2-(3-Oxo-6-pyridin-4-yl-2,3-dihydropyridazin-4-yl)-1H-benzimidazole-5-carboxylic acid (3-hydroxypropyl)amide]	> 300 °C (dec.)		
Cc1cc(-c2nc3cc(Cl)ccc3[nH]2)c(=O)[nH]n1 [Example 11, 4-(5-Chloro-1H-benzimidazol-2-yl)-6-methyl-2H-pyridazin-3-one]	> 300 °C (dec.)		
CNc1nccc(-c2cc(-c3nc4cc(Cl)ccc4[nH]3)c(=O)[nH]n2)n1 [Example 14, 4-(5-Chloro-1H-benzimidazol-2-yl)-6-(2-methylaminopyrimidin-4-yl)-2H-pyridazin-3-one]	> 300 °C (dec.)		
Cc1cccc2nc(-c3cc(-c4ccncc4)n[nH]c3=O)[nH]c12 [Example 17, 4-(7-Methyl-1H-benzimidazol-2-yl)-6-pyridin-4-yl-2H-pyridazin-3-one]	> 350 °C (dec.)		
Cc1cc2nc(-c3cc(-c4ccncc4)n[nH]c3=O)[nH]c2cc1C [Example 18, 4-(5,6-Dimethyl-1H-benzimidazol-2-yl)-6-pyridin-4-yl-2H-pyridazin-3-one]	> 350 °C (dec.)		
CN1CCN(c2ccc3[nH]c(-c4cc(-c5ccncc5)n[nH]c4=O)nc3c2)CC1 [Example 19, 4-[5-(4-Methylpiperazin-1-yl)-1H-benzimidazol-2-yl]-6-pyridin-4-yl-2H-pyridazin-3-one]	> 350 °C (dec.)		
O=c1[nH]nc(-c2ccncc2)cc1-c1nc2cc(F)ccc2[nH]1 [Example 20, 4-(5-Fluoro-1H-benzimidazol-2-yl)-6-pyridin-4-yl-2H-pyridazin-3-one]	> 350 °C (dec.)		
N#Cc1ccc2[nH]c(-c3cc(-c4ccncc4)n[nH]c3=O)nc2c1 [Example 21, 4-(5-Cyano-1H-benzimidazol-2-yl)-6-pyridin-4-yl-2H-pyridazin-3-one]	> 350 °C (dec.)	57 nM	
O=c1[nH]nc(-c2ccncc2)cc1-c1nc2ccc(Br)cc2[nH]1 [Example 22, 4-(5-Bromo-1H-benzimidazol-2-yl)-6-pyridin-4-yl-2H-pyridazin-3-one]	> 350 °C (dec.)		
Cc1cc(-c2cc(-c3nc4ccc(C(F)(F)F)cc4[nH]3)c(=O)[nH]n2)cc(C)c1O [Example 25, 6-(4-Hydroxy-3,5-dimethylphenyl)-4-(6-tri-fluoromethyl-1H-benzimidazol-2-yl)-2H-pyridazin-3-one]		56 nM	
CCCCNc1nccc(-c2cc(-c3nc4ccc(Cl)cc4[nH]3)c(=O)[nH]n2)n1 [Example 26, 6-(2-Butylaminopyrimidin-4-yl)-4-(6-chloro-1H-benzimidazol-2-yl)-2H-pyridazin-3-one]	305 °C		
CCCCNc1nccc(-c2cc(-c3nc4ccc(C(F)(F)F)cc4[nH]3)c(=O)[nH]n2)n1 [Example 27, 6-(2-Butylaminopyrimidin-4-yl)-4-(6-tri-fluoromethyl-1H-benzimidazol-2-yl)-2H-pyridazin-3-one]	288 °C		
O=c1[nH]nc(-c2ccncc2)cc1-c1nc2ccccc2[nH]1 [Example 28, 4-(1H-Benzimidazol-2-yl)-6-pyridin-4-yl-2H-pyridazin-3-one]	> 350 °C (dec.)		
O=c1[nH]nc(-c2ccncc2)cc1-c1nc2ccncc2[nH]1 [Example 38, 4-(3H-imidazol[4,5-c]pyridin-2-yl)-6-pyridin-4-yl-2H-pyridazin-3-one]		32 nM	
CN1CCN(Cc2ccc3nc(-c4cc(-c5ccncc5)n[nH]c4=O)[nH]c3c2)CC1 [Example 42, 4-[6-(4-Methylpiperazin-1-ylmethyl)-1H-benzimidazol-2-yl]-6-pyridin-4-yl-2H-pyridazin-3-one]		7 nM	
O=c1[nH]nc(-c2ccsc2)cc1-c1nc2ccccc2[nH]1 [Example 46, 4-(1H-Benzimidazol-2-yl)-6-thiophen-3-yl-2H-pyridazin-3-one]		28 nM	
Cn1cc(-c2cc(-c3nc4ccccc4[nH]3)c(=O)[nH]n2)ccc1=O [Example 50, 4-(1H-Benzimidazol-2-yl)-6-(1-methyl-6-oxo-1,6-dihydropyridin-3-yl)-2H-pyridazin-3-one]			157 nM
CN1CCN(Cc2ccc3nc(-c4cc(-c5ccccc5)n[nH]c4=O)[nH]c3c2)CC1 [Example 53, 4-[6-(4-Methylpiperazin-1-ylmethyl)-1H-benzimidazol-2-yl]-6-phenyl-2H-pyridazin-3-one]		42 nM	
O=c1[nH]nc(-c2ccnc(NC3CC3)n2)cc1-c1nc2ccccc2[nH]1 [Example 58, 4-(1H-Benzimidazol-2-yl)-6-(2-cyclopropylaminopyrimidin-4-yl)-2H-pyridazin-3-one]		50 nM	
O=c1[nH]nc(-n2ccnc2)cc1-c1nc2ccccc2[nH]1 [Example 68, 4-(1H-Benzimidazol-2-yl)-6-imidazol-1-yl-2H-pyridazin-3-one]		63 nM	
